Results: patent US4760072A, “Solid nedocromil sodium, useful for the removal of obstructed air pathways” (Fisons, plc, priority 1984, dated 1988)
Several values for one entry are separate records, joined by “and”; a condition that tells them apart may be missing. Equal values may be shown once. Where a name gives a salt, the structure may show the parent alone. Each block holds one compound with its values, some of them ahead of it.

Experiments:
[1] = Particle size analysis by Joyce-Loebl disc centrifuge; format: physicochemical; details: four laboratory precipitations; Apex milled and micronised in a fluid energy mill
Protocol: By mass median diameter we mean the diameter such that half the particulate mass is in particles of lesser diameter and half in particles of greater diameter. The mass median diameter is essentially a Stokes diameter and may be determined using a Joyce Loebl sedimentation disc centrifuge either in a two layer or line start photometric mode (Bagness J and Ottaway A. Proc. Soc. Analyt. Chem. Part 4, Vol 9, 1972 pages 83-86).
Twenty grams of nedocromil sodium were mixed with 60 ml of de-ionised water and 180 ml isopropanol in a 700 ml reaction flask. The mixture was agitated with an anchor-type stirrer at 120 rpm, and heated to its boiling point at around 80° C. The flask was fitted with a water-cooled condenser to prevent escape of isopropanol vapour. The resulting solution was refluxed for about 10 minutes to ensure complete dissolution. The hot solution of nedocromil sodium was then cooled to 75° C. and then added in about 20 seconds to 190 ml of isopropanol at 8° C. The resulting slurry was stirred with the anchor agitator and cooled to 25° C. in the reaction flask. The time taken for cooling was about 45 minutes and throughout this time the crystal slurry remained as the pale yellow, free flowing form. The slurry was then filtered on a Buchner filter using terylene filter cloth, washed with about 50 ml isopropanol and dried in an oven at 60° C. to constant weight. […]

[2] = Aerosol dispersion with single stage liquid impinger; format: physicochemical
Description: The single stage liquid impinger samples the whole cloud delivered from the aerosol and separates it into two fractions by inertial impaction. The fraction of smaller particle size is less than 10 microns in aerodynamic diameter and represents material which is likely to penetrate into the deeper regions of the human airways.
In four laboratory precipitations using this method particles of mass mean diameter 2.5, 2.5, 2.8 and 2.8 microns were produced, and these gave aerosol dispersions of 26% and 23% from a 50 microliter valve using the formulation described in Example 1. The dispersion was measured with a single stage liquid impinger.

[3] = Bound water / thermogravimetric analysis; format: physicochemical
Protocol: Form A material containing bound water can best be identified by thermogravimetric analysis in which the temperature of the material to be tested is increased at a constant rate and the change in weight of the sample is recorded against time.
(a) Two samples of about 5 mg of nedocromil sodium were submitted to thermogravimetric analysis at a scan rate of 20° C. per minute.

[4] = Viscosity of precipitated crystal slurry; format: physicochemical; details: 140 ml isopropanol at 15° C. added; cooled to 22° C. in 30 minutes
Protocol: Twenty grams of crude nedocromil sodium were mixed with 60 ml of deionised water and 180 ml of isopropyl alcohol in a 700 ml reaction flask. The mixture was agitated with an anchor-type agitator at 120 rpm and heated to boiling point at about 80° C. The solution was refluxed for 10 minutes and then cooled to 75° C. To it was then added a further 140 ml isopropanol at 15° C. […] The resulting slurry was then agitated as in Example 4 and cooled in an ice/salt/isopropanol bath to 22° C. in 30 minutes. […] This slurry was filtered, washed and dried as in Example 4.

[5] = Solid form produced by precipitation process; format: physicochemical
Protocol: Twenty grams of the nedocromil sodium were dissolved in 60 ml of deionised water and 180 ml of isopropyl alcohol by heating to reflux at 81° C. To this solution was then added a further 190 ml of isopropanol (temperature 25° C.) with agitation. The crystal slurry was then cooled in air, maintaining agitation, until a temperature of 25° C. had been reached. The crystals were then filtered on a Buchner filter, using a terylene filter cloth. The filter cake was washed with a displacement volume of isopropanol and filtered further. The cake was then dried in an oven, at atmospheric pressure and 60° C., to constant weight.
1 Kg of nedocromil sodium is dissolved in three liters of deionised water and six liters of isopropanol at 30° C., and the mixture is then heated to reflux (at 81° C.) with agitation to ensure dissolution. The resulting solution is cooled slightly to about 75° C. and then added to another 12.5 liters of isopropanol at a temperature of about -8° C., as quickly as possible. This precipitates out most of the nedocromil sodium and produces a slurry. This slurry is then stirred and cooled to 25° C. over about an hour, to precipitate out further material. The temperature of the slurry is kept at 25° C. and the slurry filtered as soon as possible to remove the mother liquor, and then dried to constant weight at 60° C. […]

[6] = Powder X-ray diffraction, crystallinity; format: physicochemical
Description: These peaks indicate that the material is crystalline.
In addition to the form A material there is a less desired form B which is of darker yellow colour, i.e. gives a yellow reading of 2.0 or more at 10% w/w total water using a Lovibond tintometer.

[7] = Physical stability of solid form B; format: physicochemical
[8] = 20° C.; cited from earlier work
[9] = Air classification of ground nedocromil sodium; format: physicochemical
Description: It is further known to be desirable to make inhalation pharmaceuticals in the form of fine particles. These fine particles are conventionally made by grinding or milling larger sized particles of the pharmaceutical. Generally grinding and milling machines are extremely efficient and reduce the particle size of the material as far as they are capable in a single pass. Indeed the mass median diameter of product material can increase after a second pass through the grinder because some of the finest particles are lost to the system. We have also attempted to produce a material of very fine particle size by air classification of ground nedocromil sodium.

SMILES: FC(F)(Cl)Cl [Propellant 12, dichlorodifluoromethane]
- vapour pressure (absolute) [8]: about 570 k Pa

SMILES: FC(F)(Cl)C(F)(F)Cl [Propellant 114, 1,2-dichlorotetrafluoroethane]
- vapour pressure (absolute) [8]: about 180 k Pa

SMILES: CCCc1c2oc(C(=O)O)cc(=O)c2cc2c(=O)cc(C(=O)O)n(CC)c12 [nedocromil sodium, disodium salt of 9-ethyl-6,9-dihydro-4,6-dioxo-10-propyl-4H-pyrano[3,2-g]-quinoline-2,8-dicarboxylic acid]
- dispersion of aerosol units, relative to larger mass median diameter ([2]; mass median diameter less than 4 microns vs exactly analogous units of larger mass median diameter): greater dispersion than exactly analogous units containing nedocromil sodium of larger mass median diameter
- mean particle size after air classification [9]: larger mean particle size than the starting material

More lines, main results first:

- aerosol dispersion ([2]; 50 microliter valve, formulation described in Example 1): 26% and 23%
SMILES: CCCc1c2oc(C(=O)O)cc(=O)c2cc2c(=O)cc(C(=O)O)n(CC)c12 [Example 4]
- mass mean diameter [1]: 2.5 microns and 2.8 microns

- bound water (in words) [3]: no tightly bound water
- viscosity of slurry [4]: about 20,000 centipoise
- form of nedocromil sodium produced [5]: form B
SMILES: CCCc1c2oc(C(=O)O)cc(=O)c2cc2c(=O)cc(C(=O)O)n(CC)c12 [Example 6]

- thermogravimetric trace (in words) [3]: discontinuous
- crystallinity by powder X-ray diffraction [6]: crystalline
SMILES: CCCc1c2oc(C(=O)O)cc(=O)c2cc2c(=O)cc(C(=O)O)n(CC)c12 [Form A]
- removability of bound water on intensive drying ([3]; atmospheric pressure): cannot readily be removed by intensive drying at atmospheric pressure without destroying the compound

- bound water (in words) [3]: no bound water
- thermogravimetric trace (in words) [3]: essentially continuous trace
- crystallinity by powder X-ray diffraction [6]: amorphous
SMILES: CCCc1c2oc(C(=O)O)cc(=O)c2cc2c(=O)cc(C(=O)O)n(CC)c12 [Form B]
- coalescence on change to form A [7]: can coalesce to produce hard and intractable lumps of particle size larger than the original material
- spontaneous change to form A [7]: can, but does not necessarily,change spontaneously (sometimes after a very considerable time) to form A
